Data set [1] is described as follows: Acute toxicity in athymic Nude-Foxn1nu BALB/c mouse xenografted with human MDA-MB-231 cells assessed as effect on blood urea nitrogen level at 200 mg/kg, po administered once daily via gavage for 14 days. The settings on record: in vivo, 336 h. The class given is organism-based. (In general: Xenograft models place foreign cells or tissue in a host animal.)
The target of data set [2] is Hepatocyte growth factor receptor (Homo sapiens) (UniProt P08581). As to the kind of experiment: Induction of c-MET degradation in human MDA-MB-231 cells assessed as suppression of c-MET expression at 0.1 to 0.8 uM by Western blot analysis. The class given is cell-based.
Data set [3] concerns the target T1, Serine/threonine-protein kinase LATS1 (Homo sapiens) (UniProt O95835).
T1 sequence (whole entry): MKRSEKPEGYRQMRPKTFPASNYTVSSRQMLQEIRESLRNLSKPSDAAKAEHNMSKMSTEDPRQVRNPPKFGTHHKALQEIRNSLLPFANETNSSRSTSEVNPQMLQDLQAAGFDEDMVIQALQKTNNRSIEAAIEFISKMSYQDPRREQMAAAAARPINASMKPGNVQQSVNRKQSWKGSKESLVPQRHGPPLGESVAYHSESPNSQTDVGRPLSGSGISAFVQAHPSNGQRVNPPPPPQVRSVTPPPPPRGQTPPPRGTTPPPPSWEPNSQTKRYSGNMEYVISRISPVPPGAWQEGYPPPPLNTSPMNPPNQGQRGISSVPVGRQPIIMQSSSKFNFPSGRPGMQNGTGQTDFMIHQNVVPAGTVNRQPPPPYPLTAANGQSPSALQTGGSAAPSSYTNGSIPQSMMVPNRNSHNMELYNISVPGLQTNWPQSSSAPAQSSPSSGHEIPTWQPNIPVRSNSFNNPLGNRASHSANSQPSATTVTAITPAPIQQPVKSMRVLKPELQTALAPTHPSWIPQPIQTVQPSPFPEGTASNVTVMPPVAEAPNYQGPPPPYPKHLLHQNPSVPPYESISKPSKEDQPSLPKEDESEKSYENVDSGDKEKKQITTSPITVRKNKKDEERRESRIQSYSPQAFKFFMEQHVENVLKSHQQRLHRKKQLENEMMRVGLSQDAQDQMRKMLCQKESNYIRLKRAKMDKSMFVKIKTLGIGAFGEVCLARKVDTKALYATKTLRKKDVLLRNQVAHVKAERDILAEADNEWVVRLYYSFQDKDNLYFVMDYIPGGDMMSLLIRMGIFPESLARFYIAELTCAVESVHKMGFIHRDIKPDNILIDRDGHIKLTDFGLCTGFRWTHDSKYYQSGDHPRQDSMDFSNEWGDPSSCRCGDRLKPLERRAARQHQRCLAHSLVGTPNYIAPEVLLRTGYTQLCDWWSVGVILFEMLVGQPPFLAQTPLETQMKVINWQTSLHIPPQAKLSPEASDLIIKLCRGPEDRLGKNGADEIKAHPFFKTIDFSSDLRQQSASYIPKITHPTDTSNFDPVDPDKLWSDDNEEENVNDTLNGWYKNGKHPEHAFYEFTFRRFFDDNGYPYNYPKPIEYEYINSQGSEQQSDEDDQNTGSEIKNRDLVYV
As to the kind of experiment: Activation of LATS1 in triple-negative human SUM159 cells assessed as effect on YAP mRNA level at 0.25 to 1 uM measured after 12 hrs by Trizol reagent based RT-PCR analysis.

The species named for another data set is Homo sapiens. In words: Activation of MOB in human PC3 cells assessed as phosphorylation at Thr35 residue at 0.25 to 1.25 uM measured after 24 hrs by Western blot analysis. The format is cell-based. In general terms: In western blotting, separated proteins are transferred to a membrane and probed.
A further data set has as its system MDA-MB-231. As to the kind of experiment: Cytotoxicity against human MDA-MB-231 cells assessed as reduction in cell viability at 0.2 to 1.2 uM by MTT assay. The format is functional, cell-based. The conditions noted are these: TDE = time-dependent effect. Background: Tetrazolium assays rely on reduction of a dye to a coloured formazan, in cell work by metabolically active cells.

In data set [4] the target is T1, Serine/threonine-protein kinase LATS1 (Homo sapiens). As to the kind of experiment: Activation of LATS1 in human […] cells assessed as increase in YAP phosphorylation at Ser397 at 0.25 to 1.5 uM measured after 12 to 24 hrs by immunoblotting analysis. The format is cell-based.
Data set [5] can be described thus: Acute toxicity in athymic Nude-Foxn1nu BALB/c mouse xenografted with human MDA-MB-231 cells assessed as effect on serum AST level at 200 mg/kg, po administered once daily via gavage for 14 days. The class given is organism-based. The settings on record: in vivo, 336 h.

The source made the active and inactive calls. The calls are words filed in the database; no cut-off is given here.

Hepatocyte growth factor receptor (Homo sapiens), sequence (P08581 whole entry): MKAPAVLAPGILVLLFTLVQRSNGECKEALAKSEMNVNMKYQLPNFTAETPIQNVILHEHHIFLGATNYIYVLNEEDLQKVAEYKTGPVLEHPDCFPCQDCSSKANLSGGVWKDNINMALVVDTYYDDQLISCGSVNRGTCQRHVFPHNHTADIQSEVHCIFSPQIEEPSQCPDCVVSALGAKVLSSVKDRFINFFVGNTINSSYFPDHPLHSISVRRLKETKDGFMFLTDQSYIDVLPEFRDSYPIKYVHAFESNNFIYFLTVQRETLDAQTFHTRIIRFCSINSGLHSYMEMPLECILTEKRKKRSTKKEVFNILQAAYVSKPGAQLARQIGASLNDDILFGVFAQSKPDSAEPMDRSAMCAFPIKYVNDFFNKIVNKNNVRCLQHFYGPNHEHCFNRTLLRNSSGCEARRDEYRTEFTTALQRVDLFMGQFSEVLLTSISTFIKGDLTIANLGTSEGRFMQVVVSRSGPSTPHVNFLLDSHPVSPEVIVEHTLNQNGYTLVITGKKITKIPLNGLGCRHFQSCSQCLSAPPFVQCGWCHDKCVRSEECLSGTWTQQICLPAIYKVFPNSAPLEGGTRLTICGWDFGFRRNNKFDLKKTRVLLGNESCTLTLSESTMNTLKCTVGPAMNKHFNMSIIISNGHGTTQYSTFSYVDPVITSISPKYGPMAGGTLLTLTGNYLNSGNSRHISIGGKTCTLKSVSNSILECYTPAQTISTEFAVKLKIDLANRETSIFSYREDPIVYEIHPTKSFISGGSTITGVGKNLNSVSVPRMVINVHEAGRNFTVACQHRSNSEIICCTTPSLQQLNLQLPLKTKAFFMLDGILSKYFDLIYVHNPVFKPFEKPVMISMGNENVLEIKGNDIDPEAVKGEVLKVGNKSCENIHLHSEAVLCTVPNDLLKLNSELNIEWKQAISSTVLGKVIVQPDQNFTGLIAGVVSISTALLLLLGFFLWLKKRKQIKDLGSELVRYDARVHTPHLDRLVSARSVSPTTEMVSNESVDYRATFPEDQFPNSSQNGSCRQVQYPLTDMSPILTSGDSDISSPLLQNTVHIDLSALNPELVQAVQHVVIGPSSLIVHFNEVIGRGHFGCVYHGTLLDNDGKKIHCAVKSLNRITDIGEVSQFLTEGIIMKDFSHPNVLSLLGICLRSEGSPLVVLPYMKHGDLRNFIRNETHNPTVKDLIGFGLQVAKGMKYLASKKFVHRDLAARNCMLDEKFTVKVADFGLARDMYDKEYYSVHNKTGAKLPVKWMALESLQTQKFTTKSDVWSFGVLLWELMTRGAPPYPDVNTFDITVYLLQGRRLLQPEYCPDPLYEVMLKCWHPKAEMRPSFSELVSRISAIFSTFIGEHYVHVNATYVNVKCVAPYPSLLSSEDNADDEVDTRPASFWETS

With `CC(=O)Nc1ccc(NC(=O)Nc2cccc(-c3nc(-c4ccc(NC(=O)c5cccnc5)cc4Cl)no3)c2)cc1C(F)(F)F`, the Activity result in data set [1] was “Non-Toxic”; with MDA-MB-231, “Tde”; in data set [5] it was “Non-Toxic”. Besides, the outcome (in data set [2]; in data set [3]; in the data set filed under Homo sapiens) was inactive. Also, in data set [4], the result was Active.

The values are drawn from ChEMBL document CHEMBL4342507, “Targeting YAP Degradation by a Novel 1,2,4-Oxadiazole Derivative via Restoration of the Function of the Hippo Pathway” (ACS Med Chem Lett, 2020).
